Measurements as given in PubChem BioAssay AID743403 (Broad Institute, 2014).
Values joined by “and” are separate entries in the source; they are usually repeats but may differ in a detail not shown here. Equal values may be shown once. Active and inactive are the calls of the source. The rule behind the calls is not given here.

system: not listed separately; experiment: fungal cell lysis by compounds – dry powder, set 2, dose response (AID 743403); conditions: Cryptococcus neoformans cell lysis, plate reader; at 35 µM (top of the series)

Row | Compound | activity change, negative = active
1 | CSc1nc2ccccc2n1CCOc1cc(C)ccc1C(C)C | -4.35% (inactive)
2 | CCCc1nc2ccccc2n1CCOc1ccccc1 | 0.352% (inactive)
3 | CCc1nc2ccccc2n1CCOc1ccccc1 | 5.25% (inactive)
4 | c1ccc(-c2ccc(OCCn3cnc4ccccc43)cc2)cc1 | -12.5% (inactive)
5 | COc1ccc(OCCn2cnc3ccccc32)cc1 | -22.1% (inactive)
6 | COCc1nc2ccccc2n1CCOc1ccc(C(C)(C)C)cc1 | 5.6% (inactive)
7 | Cc1ccc(C(C)C)c(OCCn2c(NC#N)nc3ccccc32)c1 | -9.31% (inactive)
8 | O=S(=O)(c1ccc(OCCn2cnc3ccccc32)cc1)N1CCOCC1 | -21.8% (inactive)
9 | Cc1ccc(C(C)C)c(OCCn2c(N)nc3ccccc32)c1 | 69.2% (inactive)
10 | CS(=O)(=O)c1ccc(OCCn2cnc3ccccc32)cc1 | -15.6% (inactive)
11 | S=c1[nH]c2cc(Cl)ccc2n1CCOc1ccccc1 | 27% (inactive)
12 | OCc1nc2ccccc2n1CCOc1ccccc1 | -9.32% (inactive)
13 | Cc1cccc(OCCn2c(=S)[nH]c3c(F)cccc32)c1 | 1.05% (inactive)
14 | CC(C)c1ccccc1NCCn1c(=S)[nH]c2ccccc21 | 0.673% (inactive)
15 | Cc1cccc(OCCn2c(=S)[nH]c3ccc(C(F)(F)F)cc32)c1 | 4.5% (inactive)
16 | Cc1ccc(C(C)C)c(OCCn2c(=O)[nH]c3ccccc32)c1 | -16.7% (inactive)
17 | CCSc1nc2ccccc2n1CCOc1ccccc1 | -22.6% (inactive)
18 | CCCCc1nc2ccccc2n1CCOc1ccccc1 | 0.005% (inactive)
19 | Cc1ccc(C(C)C)c(OCCn2c(CO)nc3ccccc32)c1 | -20.4% (inactive)
20 | Fc1ccc(OCCn2c(=S)[nH]c3ccccc32)cc1 | -33.3% (inactive)
21 | COc1ccccc1OCCn1c(=S)[nH]c2ccccc21 | 3.55% (inactive)

system: Cryptococcus neoformans cell lysis, plate reader; experiment: as above; conditions: not given

Row | Compound | AC50
22 | Fc1ccc2c(c1)[nH]c(=S)n2CCOc1ccccc1 | 23.2 µM and 28.7 µM
23 | S=c1[nH]c2cccc(Cl)c2n1CCOc1ccccc1 | 8.43 µM
24 | Clc1ccc(OCCn2cnc3ccccc32)c(Cl)c1 | 7.76 µM
25 | Cc1ccc(OCCn2cnc3cc(C)c(C)cc32)cc1 | 15.9 µM
26 | Cc1ccc2c(c1)[nH]c(=S)n2CCOc1ccccc1 | 17.4 µM
27 | Cc1ccc(OCCn2cnc3ccccc32)c(C)c1 | 7.4 µM
28 | Cc1cc2ncn(CCOc3ccc4c(c3)CCC4)c2cc1C | 5.59 µM
29 | Cc1cccc(OCCn2c(=S)[nH]c3ccccc32)c1 | 19.5 µM
30 | c1ccc2c(c1)ncn2CCOc1ccc2c(c1)CCC2 | 3.76 µM
31 | NCC(=O)Nc1ccc(-n2nc(C(F)(F)F)cc2-c2ccc3c(ccc4ccccc43)c2)cc1 | 10.9 µM
32 | Cc1cc2ncn(CCOc3ccccc3)c2cc1C | 25 µM
33 | CC(C)Oc1cccc(OCCn2cnc3ccccc32)c1 | 29 µM
34 | CC(C)(C)c1ccc(OCCn2cnc3ccccc32)c(Cl)c1 | 20.8 µM
35 | CC(C)c1ccccc1OCCn1c(=S)[nH]c2ccccc21 | 11.9 µM
36 | CC(C)(C)c1ccc(OCCn2cnc3ccccc32)cc1 | 30.5 µM
37 | COc1ccccc1OCCn1c(SC)nc2ccccc21 | > 70 µM (inactive)
38 | Cc1cccc(OCCn2c(=S)[nH]c3cc(F)ccc32)c1 | 14.8 µM and 15.5 µM
39 | CSc1nc2ccccc2n1CCOc1ccc(C)cc1 | > 70 µM (inactive)
40 | Cc1cc2ncn(CCOc3ccccc3C)c2cc1C | 19.8 µM
41 | FC(F)(F)c1cccc(OCCn2cnc3ccccc32)c1 | > 70 µM (inactive)
42 | Cc1ccc(C(C)C)c(OCCn2c(=S)[nH]c3ccccc32)c1 | 4.95 µM
43 | Clc1ccc(OCCn2cnc3ccccc32)cc1 | 32.5 µM
44 | Fc1cccc2c1[nH]c(=S)n2CCOc1ccccc1 | 26.2 µM
45 | CC(C)Oc1ccc(OCCn2c(=S)[nH]c3ccccc32)cc1 | 29.7 µM
46 | Clc1ccccc1OCCn1cnc2ccccc21 | 36.3 µM
